Measurements as given in patent publication US6291199A, “Human phosphodiesterase type IVC, and its production and use” (Celltech Therapeutics Limited, priority 1994, dated 2001).
Where two headings read alike, the source gives them in different places.

Tests used:
[1] = system: PDE IV D; details: read-out: IC50 for rolipram inhibition; literature; cited from earlier work
[2] = system: PDE IV A; details: read-out: IC50 for rolipram inhibition; literature; cited from earlier work
[3] = system: PDE IVA; details: in situ, CHO + beta 2 adrenergic receptor + PDE IVA, 10 uM inhibitor
Description: Transfected cells were harvested with non-enzymatic cell dissociation reagent (Sigma) washed three times and re-suspended in Dulbecco's phosphate buffered saline containing 0.1% BSA and 0.1% glucose (DPBS+). The cells were incubated with 10 uM inhibitor (or solvent control, 0.1% DMSO) in DPBS+for 10 min at 37° C. The cell suspension was stimulated with isoproterenol (0.001-1 uM) for 2 min. The cells were pelleted at 12000 g and resuspended in 400 uL of boiling assay buffer 1s (DuPont cAMP measurement kit). The samples were heated in a boiling water bath for 10 min and frozen before being assayed for cAMP using a commercial cAMP radioimmunoassay (DuPont).

[4] = system: PDE IV B; details: read-out: IC50 for rolipram inhibition; literature; cited from earlier work
[5] = system: PDE IVA; assay: Inhibition of recombinant human PDE IVA (cAMP hydrolysis); type: biochemical; details: enzyme from CHO cell lysates
[6] = system: recombinant PDE IV; details: Torphy et al. 1992; cited from earlier work
[7] = system: HL60 cells; assay: RT.PCR of PDE IV isoform mRNAs in Bt2 cAMP stimulated HL60 cells; type: cell-based, human; details: HL-60 cells
Description: (§1) To identify a source of gene C mRNA, a number of cell lines were assayed for isoform mRNAs by reverse transcription coupled to polymerase chain reaction (RT.PCR). Total RNA was prepared using RNAzol (Biogenesis) and polyA+ mRNA selected by affinity chromatography using oligodT cellulose. 50 ng of first strand cDNA prepared by reverse transcriptase was amplified with the following pairs of gene specific primers for 40 cycles using the conditions, 94° C. 1 min, 55° C. 1 min, 72° C. 3 min.
(§2) The results of RT.PCR using the human gene primers to detect isoform mRNAs in both human tissue culture cells and rat tissues confirms that PDE IV mRNAs are widely distributed though the apparent levels of each isoform mRNA varies. Gene C mRNA appears to be more abundant than A,B, or D in cells derived from dorsal root ganglia and testes in rat. This latter result is consistent with data reported previously by Swinnen et al. (1989) ibid.

[8] = system: SKNSH cells; assay: RT.PCR of PDE IV isoform mRNAs in Bt2 cAMP stimulated SKNSH cells; type: cell-based, human; details: SKN.SH cells
Description: as §1, §2

[9] = system: T lymphocytes; details: relative to other enantiomer; Sommer et al. 1995; cited from earlier work
[10] = system: binding sites in the rodent forebrain tissue; details: Schmiechen et al.; Kaulen et al. 1989; cited from earlier work
[11] = system: PDE IVA; assay: Inhibition of recombinant human PDE IVA (cAMP hydrolysis); type: biochemical
Description: Isolation of cDNA Clones for Gene A
A partial cDNA for gene A was isolated by PCR from a cDNA library prepared from PMA stimulated U937 cells using published sequence information (Livi G. et al. (1990) ibid)). Subsequently a conserved region probe form this cDNA was used to isolate a full length cDNA clone from a human frontal cortex cDNA library by hybridisation and washing at moderate stringency (final wash 2×SSC, 0.5% SDS at 60° C.).
The full length gene for PDE IVA was introduced into pEE7 and pYES vectors for expression in COS and yeast cells respectively.
Recombinant PDE IV enzymes were produced in COS cells by transient expression as described by Whittle N. et al. [(1987) Prot. Engineering 1 499-505]. Briefly […] cells/ml were transfected with 10 ug of plasmid. After 3 days in culture cells were washed with PBS and lysed by brief sonciation in 50 mM TES buffer, pH 7.6, (N. tris[hydroxymethyl]methyl) 2-aminoethane sulphonic acid containing proteases inhibitors (50 uM leupeptin, 1 uM pepstatin, 1 um phenylmethylsulphonylfluoride, 2 uM benzamidine). The cell homogenate was centrifuged ×12000 g for 10 min. and assayed for PDE IV activity.
For expression of PDE IVA and C in yeast cells, the two genes were inserted into the vector pYES (InVitrogen) as either Hind3/Xba1 (gene A) or EcoR1 (gene C) fragments isolated from pDEFC17 and pDEU7 vectors respectively. The resulting plasmids were designated as pDEFC 32 and pDEU8 respectively. Yeast cells (B7542: alpha, ura-3,trp1+, Leu2delta, pep4: His3, prBdelta 1.6R can 1, gal) were transformed with pDEFC32 and pDEU8 vectors using the lithium acetate method (Ito H. et al. (1983) J.Bacteriol. 51 163-168). Ura3 positive prototrophs were isolated and grown at 30° C. to an OD600 =1.0 in minimal media containing 2% glucose and […] leucine. Cells were recovered by centrifugation, washed and resuspended at OD600 =0.5 in minimal media containing 2% galactose to induce PDE IV expression. At an OD600 =1.0 cells were harvested, washed and broken in TES buffer plus proteases (see above) by milling with glass beads (425-600 um) at 4° C. The homogenate was clarified by centrifugation at 100,000 g for 30 mins at 4° C.
Enzyme reactions were carried out at pH 7.6 in 50 mM TES buffer containing 10 mM MgCl2, 3',5' cAMP (0.1 uM ^3 H-labelled 0.74-1.1 TBq/mmol) 5'AMP (2.5 uM ^14 C, 1.85-2.2 GBq/mmol) for 30 min at 30° C. Sufficient enzyme preparation was added to hydrolyse not more than 20% of substrate under these conditions. […] Reactions were stopped by rapid inactivation of enzyme by addition of trifluoroacetic acid to a final concentration of 1%. Substrate and product of reaction were separated as described by Smith et al. [(1993) Analyt. Biochem. 214 355-357] and the [^3 H] 5'AMP product analysed by scintillation counting. Correction for losses of [^3 H] […] during separation was made by reference to [^14 C] 5'AMP included in the reaction mixture.

[12] = system: beta 2 adrenergic receptor; details: CHO cells expressing human beta2 adrenergic receptor; isoproterenol 0.001-1 uM, 2 min
Source text: Isolation of Human Beta 2 Adrenergic Receptor Gene.
The human beta 2 adrenergic receptor gene (Kobilka B. et al. (1987) J.Biol. Chem. 262 7321-7327) was isolated from HL-60 cells genomic DNA by PCR using the following primers: […]
The plasmid was named pRO1 44.

[13] = system: asthma; details: in vivo; cited from earlier work
[14] = Catalytic activity of PDE IVC and PDE IVA deletion mutants expressed in COS cells; type: biochemical; details: constructs expressed in COS cells
Source text: Construction of PDE IVA and PDE IVC Deletion Mutants.
Deletion analyses of rat PDE IVD (Jin C. (1992) J.Biol.Chem. 27 18929-18939) and PDE IVB (Pillai R. et al. (1993) Proc.Natl.Acad.Sci.USA 90 11970-11974) have defined the minimum enzyme sequence required for catalytic activity. Corresponding deletions were made to both human PDE IV A and C enzymes and the activity of the resulting enzymes evaluated following transient expression in COS cells.
PDE IVA PCR was used to construct a plasmid (pDEFC18) containing the first 129 bp (Met1 to IIe 43) of the PDE IVA gene. In addition a 3' BamH1 restriction enzyme site was introduced into the sequence. The PCR primers were as follows: […]
A mutant deleted to the beginning of the catalytic domain (IIe43-GIn 330; Bolger et al. 1993 ibid) was produced by PCR using the following primers: […]
The PCR fragment was restricted with BamH1 and EcoR1 and cloned into the plasmid, pDEFC18 described above to produce the vector pDEFC23. Following sequencing this vector was restricted with Hind3 and Xho1 and inserted into Hind3/Xbal restricted pEE7 together with a Xho1/Xba1 fragment corresponding to the remaining 3' portion of gene A. The final plasmid was designated pDEFC24. […]
Biochem. 214 355-357] and the [^3 H] 5'AMP product analysed by scintillation counting. […]

## COc1ccc(C2CNC(=O)C2)cc1OC1CCCC1 (racemic) [Rolipram]
[1]
  IC50: 200 to 500 nM
[2]
  IC50: 200 to 500 nM
[3]
  reversal by rolipram of the prevention of cAMP accumulation, in words: reversed
[4]
  IC50: 200 to 500 nM
[5]
  IC50: 287 nM
[6]
  high affinity binding of rolipram, in words: stereoselectivity for high affinity binding

## CCCC(=O)Nc1ncnc2c1ncn2[C@@H]1O[C@@H]2COP(=O)(O)O[C@H]2[C@H]1OC(=O)CCC [Bt2 CAMP]
[7]
  levels of PDE IV isoform mRNAs, in words: levels of C and D but not A and B are elevated
[8]
  levels of PDE IV isoform mRNAs, in words: levels of C and D but not A and B are elevated

## COc1ccc([C@@H]2CNC(=O)C2)cc1OC1CCCC1 [R-rolipram]
[9]
  effectiveness in suppression of TNF release: approximately 50 times
[10]
  affinity for binding sites over S-rolipram, in words: higher affinity
[11]; enzyme from COS cells, read-out: IC50, PDE IVA
  IC50: 292 nM
[11]; enzyme from yeast, read-out: IC50, Yeast, A
  IC50: 298 nM
[5]
  IC50: 251 nM

## CC(C)NCC(O)c1ccc(O)c(O)c1 (centres unmarked) [isopreterenol]
[12]
  cAMP levels, in words: dose-dependent increase in cAMP levels

## Cn1c(=O)c2[nH]cnc2n(C)c1=O [theophylline]
[13]
  effect in asthma, in words: has been shown to have a therapeutic effect

B1: PDE IVC Met 1: PDE IVC construct starting at Met 1, expressed in COS cells (protein, UniProt Q08493 1-712, looked up)
chain: MENLGVGEGAEACSRLSRSRGRHSMTRAPKHLWRQPRRPIRIQQRFYSDPDKSAGCRERDLSPRPELRKSRLSWPVSSCRRFDLENGLSCGRRALDPQSSPGLGRIMQAPVPHSQRRESFLYRSDSDYELSPKAMSRNSSVASDLHGEDMIVTPFAQVLASLRTVRSNVAALARQQCLGAAKQGPVGNPSSSNQLPPAEDTGQKLALETLDELDWCLDQLETLQTRHSVGEMASNKFKRILNRELTHLSETSRSGNQVSEYISRTFLDQQTEVELPKVTAEEAPQPMSRISGLHGLCHSASLSSATVPRFGVQTDQEEQLAKELEDTNKWGLDVFKVAELSGNRPLTAIIFSIFQERDLLKTFQIPADTLATYLLMLEGHYHANVAYHNSLHAADVAQSTHVLLATPALEAVFTDLEILAALFASAIHDVDHPGVSNQFLINTNSELALMYNDASVLENHHLAVGFKLLQAENCDIFQNLSAKQRLSLRRMVIDMVLATDMSKHMNLLADLKTMVETKKVTSLGVLLLDNYSDRIQVLQNLVHCADLSNPTKPLPLYRQWTDRIMAEFFQQGDRERESGLDISPMCDKHTASVEKSQVGFIDYIAHPLWETWADLVHPDAQDLLDTLEDNREWYQSKIPRSPSDLTNPERDGPDRFQFELTLEEAEEEDEEEEEEGEETALAKEALELPDTELLSPEAGPDPGDLPLDNQRT
modifications: full-length
notes: PDE IVC construct starting at Met 1, expressed in COS cells
[14]
  Catalytic activity: 0.09 pmol/min/µL

B2: PDE IVA Met 1: PDE IVA construct starting at Met 1, expressed in COS cells (protein, UniProt P27815 1-886, looked up)
chain: MEPPTVPSERSLSLSLPGPREGQATLKPPPQHLWRQPRTPIRIQQRGYSDSAERAERERQPHRPIERADAMDTSDRPGLRTTRMSWPSSFHGTGTGSGGAGGGSSRRFEAENGPTPSPGRSPLDSQASPGLVLHAGAATSQRRESFLYRSDSDYDMSPKTMSRNSSVTSEAHAEDLIVTPFAQVLASLRSVRSNFSLLTNVPVPSNKRSPLGGPTPVCKATLSEETCQQLARETLEELDWCLEQLETMQTYRSVSEMASHKFKRMLNRELTHLSEMSRSGNQVSEYISTTFLDKQNEVEIPSPTMKEREKQQAPRPRPSQPPPPPVPHLQPMSQITGLKKLMHSNSLNNSNIPRFGVKTDQEELLAQELENLNKWGLNIFCVSDYAGGRSLTCIMYMIFQERDLLKKFRIPVDTMVTYMLTLEDHYHADVAYHNSLHAADVLQSTHVLLATPALDAVFTDLEILAALFAAAIHDVDHPGVSNQFLINTNSELALMYNDESVLENHHLAVGFKLLQEDNCDIFQNLSKRQRQSLRKMVIDMVLATDMSKHMTLLADLKTMVETKKVTSSGVLLLDNYSDRIQVLRNMVHCADLSNPTKPLELYRQWTDRIMAEFFQQGDRERERGMEISPMCDKHTASVEKSQVGFIDYIVHPLWETWADLVHPDAQEILDTLEDNRDWYYSAIRQSPSPPPEEESRGPGHPPLPDKFQFELTLEEEEEEEISMAQIPCTAQEALTAQGLSGVEEALDATIAWEASPAQESLEVMAQEASLEAELEAVYLTQQAQSTGSAPVAPDEFSSREEFVVAVSHSSPSALALQSPLLPAWRTLSVSEHAPGLPGLPSTAAEVEAQREHQAAKRACSACAGTFGEDTSALPAPGGGGSGGDPT
modifications: full-length
notes: PDE IVA construct starting at Met 1, expressed in COS cells
[14]
  Catalytic activity: 0.155 pmol/min/µL
